Test results: US8178506B2, “Oligomeric compounds and compositions for use in modulation of small non-coding RNAs” (Regulus Therapeutics Inc., priority 2003, dated 2012)
In the oligonucleotide strings, read from the 5' end, every base follows the letter of its sugar. An asterisk marks phosphorothioate; unmarked linkages are phosphodiester. Other units and linkages are bracketed, terminal groups are in braces. A string of capitals states the bases alone. e = 2'-O-(2-methoxyethyl) (MOE); [5mC] = 5-methylcytosine; d = 2'-deoxy (DNA)

Tests used:
[1] = system: leptin; assay: Leptin secretion by adipocytes (ELISA); type: cell-based, human; conditions: adipocytes, 250 nM oligomeric compound, day nine post-transfection, relative to control (1.0); Table 16
Procedure: Leptin secretion into the medium in which adipocytes are cultured is measured by protein ELISA. On day nine post-transfection, 96-well plates are coated with a monoclonal antibody to human leptin (R&D Systems, Minneapolis, Minn.) and left at 4° C. overnight. The plates are blocked with bovine serum albumin (BSA), and a dilution of the treated adipoctye medium is incubated in the plate at room temperature for approximately 2 hours. After washing to remove unbound components, a second monoclonal antibody to human leptin (conjugated with biotin) is added. The plate is then incubated with strepavidin-conjugated horse radish peroxidase (HRP) and enzyme levels are determined by incubation with 3, 3′,5,5′-tetramethlybenzidine, which turns blue when cleaved by HRP. The OD450 is read for each well, where the dye absorbance is proportional to the leptin concentration in the cell lysate.
Leptin is also a marker for differentiated adipocytes. In the adipocyte assay, leptin secretion into the media above the differentiated adipocytes was measured by protein ELISA. Cell growth, transfection and differentiation procedures were carried out as described for the Triglyceride accumulation assay (see below). On day nine post-transfection, 96-well plates were coated with a monoclonal antibody to human leptin (R&D Systems, Minneapolis, Minn.) and left at 4° C. overnight. The plates were blocked with bovine serum albumin (BSA), and a dilution of the media was incubated in the plate at RT for 2 hours. After washing to remove unbound components, a second monoclonal antibody to human leptin (conjugated with biotin) was added. The plate was then incubated with strepavidin-conjugated horseradish peroxidase (HRP) and enzyme levels are determined by incubation with 3, 3′, 5,5′-Tetramethlybenzidine, which turns blue when cleaved by HRP. The OD450 was read for each well, where the dye absorbance is proportional to the leptin concentration in the cell lysate. Results are expressed as a percent±standard deviation relative to transfectant-only controls.

[2] = system: B16-F10 cells; assay: Cell cycle assay in B16-F10 cells; type: cell-based, mouse; conditions: 150 nM, 48 hours, relative to untreated control
Procedure: (§1) BJ cells were routinely cultured in MEM high glucose with 2 mM L-glutamine and Earle's BSS adjusted to contain 1.5 g/L sodium bicarbonate and supplemented with 10% fetal bovine serum, 0.1 mM non-essential amino acids and 1.0 mM sodium pyruvate (all media and supplements from Invitrogen Life Technologies, Carlsbad, Calif.). B16-F10 cells were routinely cultured in DMEM high glucose (Invitrogen Life Technologies, Carlsbad, Calif.) supplemented with 10% fetal bovine serum (Invitrogen Life Technologies, Carlsbad, Calif.). T47D cells were cultured in DMEM High glucose media (Invitrogen Life Technologies, Carlsbad, Calif.) supplemented with 10% fetal bovine serum. […] Cells were plated on collagen-coated 24-well plates (Falcon-Primaria #3047, BD Biosciences, Bedford, Mass.) at approximately 50,000 cells per well and allowed to attach to wells overnight.
(§2) In further studies, additional cell lines were treated with oligomeric compounds targeted against miRNAs to assess the effects of each oligomeric compound on cell cycling. BJ, B16, T47D, and HeLa cells were cultured and transfected as described above. […] T47Dp53 cells are T47D cells that have been transfected with and selected for maintenance of a plasmid that expresses a wildtype copy of the p53 gene (for example, pCMV-p53; Clontech, Palo Alto, Calif.), using standard laboratory procedures. BJ cells were treated with 200 nM of each oligomeric compound, and T47D, T47Dp53, HeLa, and B16 cells were treated with 150 nM of each oligomeric compound. The human foreskin fibroblast BJ cell line represents a non-cancer cell line, while HeLa, T47D, T47Dp53 cells and the mouse melanoma cell line B16-F10 represent cancerous cell lines. For comparison, oligomeric compounds ISIS 183891 (SEQ ID NO: 847) and ISIS 285717 ([…]; herein incorporated as SEQ ID NO: 857), both targeting the kinesin-like 1/Eg5 mRNA, involved in cell cycling, were used as positive controls. The random-mer ISIS 29848 was used as a negative control. Additionally, the oligomeric compounds ISIS Number 25690 ([…]; herein incorporated as SEQ ID NO: 858) and ISIS Number 25691 ([…]; herein incorporated as SEQ ID NO: 859), targeted to nucleotides 3051-3070 and 3085-3104, respectively, of the mRNA encoding the Drosha RNase III (GenBank Accession NM_013235.2, incorporated herein as SEQ ID NO: 860) were also tested. ISIS Number 25690 and ISIS Number 25691 are 5-10-52′-MOE gapmer compounds, 20 nucleotides in length, with phosphorothioate internucleoside linkages throughout the oligomeric compound. All cytidine residues are 5-methylcytidines. Transfections were performed using the methods described herein. Cells were prepared for flow cytometry 48-hours after oligonucleotide treatment. Results of these studies are shown in Table 35, where data are expressed as percentage of cells in each phase relative to the untreated control cells in that phase.

[3] = system: BJ cells; assay: Cell cycle assay in BJ cells; type: cell-based, human; conditions: 200 nM, 48 hours, relative to untreated control
Procedure: as §1, §2

[4] = system: DIO mice; assay: Diet-induced obesity (DIO) mice; type: in vivo; conditions: 25 mg/kg s.c. twice weekly, 25 mg/kg
Procedure: As described, supra, the C57BL/6 mouse strain is reported to be susceptible to hyperlipidemia-induced atherosclerotic plaque formation, and when these mice are fed a high-fat diet, they develop diet-induced obesity (DIO). Accordingly, the DIO mouse model is useful for the investigation of obesity and development of agents designed to treat these conditions. In one embodiment of the present invention, oligomeric compounds targeting miRNAs were tested in the DIO model. Normal C57/BL6 male mice were fed a high fat diet (40% fat, 41% carbohydrate, 18% protein) for 12 weeks before the study began. DIO mice were then randomized by weight and insulin values. Initial body fat composition was determined by Dual X-ray Absorptiometry (DEXA) Scan. DIO mice were then subcutaneously injected with oligomeric compounds of the invention at a dose of 25 mg/kg, twice weekly. DIO mice were treated with oligomeric compounds ISIS Numbers 327901 and 340927 targeting mir-143, ISIS Numbers 327892 and 340926 targeting mir-131/mir-9, ISIS Numbers 327878 and ISIS Number 345349 targeting mir-203, and ISIS Numbers 327889 and 340925, targeting mir-23b. […] DEXA scans were also performed at weeks 0, 3 and 5 after treatment with the oligomeric compounds to assess the fat mass to lean mass ratio. The effects of target inhibition on levels of plasma glucose and insulin, liver transaminases, cholesterol and triglycerides, were also assessed weekly by tail bleed, and after the treatment period, mice were sacrificed and liver and kidney heart, as well as white adipose tissue (WAT) tissues collected. The mRNA expression levels of the Glut4, aP2, HSL and PPARγ marker genes are also assessed. […] Furthermore, some improvement in body composition (a reduction in body weight and fat mass) was observed.

327888 (antisense eA*eA*eT*eG*e[5mC]*e[5mC]*e[5mC]*e[5mC]*eT*eA*eA*eA*eA*eA*eT*e[5mC]*e[5mC]*eT*eT*eA*eT) [compound 327888]
Leptin (secretion) [1]: 1.38

327889 (antisense eG*eT*eG*eG*eT*eA*eA*eT*e[5mC]*e[5mC]*e[5mC]*eT*eG*eG*e[5mC]*eA*eA*eT*eG*eT*eG*eA*eT) [compound 327889]
Leptin (secretion) [1]: 1.05

327890 (antisense eA*eG*e[5mC]*eA*e[5mC]*eA*eA*eA*e[5mC]*eT*eA*e[5mC]*eT*eA*e[5mC]*e[5mC]*eT*e[5mC]*eA) [compound 327890]
Leptin (secretion) [1]: 1.36

327893 (antisense eA*eA*e[5mC]*e[5mC]*eA*e[5mC]*eA*e[5mC]*eA*eA*e[5mC]*e[5mC]*eT*eA*e[5mC]*eT*eA*e[5mC]*e[5mC]*eT*e[5mC]*eA) [compound 327893]
Leptin (secretion) [1]: 1.14

327901 (antisense eT*eG*eA*eG*e[5mC]*eT*eA*e[5mC]*eA*eG*eT*eG*e[5mC]*eT*eT*e[5mC]*eA*eT*e[5mC]*eT*e[5mC]*eA) [compound 327901]
Leptin (secretion) [1]: 1.02

327902 (antisense eG*eG*e[5mC]*eT*eG*eT*e[5mC]*eA*eA*eT*eT*e[5mC]*eA*eT*eA*eG*eG*eT*e[5mC]*eA*eG) [compound 327902]
% cells in cell cycle phase G1 [2]: 112%
% cells in cell cycle phase G2/M [2]: 98%
% cells in cell cycle phase S [2]: 88%
% cells in cell cycle phase aneuploid [2]: 101%
% cells in cell cycle phase subG1 [2]: 151%
% cells in cell cycle phase G1 [3]: 99%
% cells in cell cycle phase G2/M [3]: 108%
% cells in cell cycle phase S [3]: 88%
% cells in cell cycle phase aneuploid [3]: 82%
% cells in cell cycle phase subG1 [3]: 91%

327903 (antisense eA*eA*e[5mC]*eT*eA*eT*eA*e[5mC]*eA*eA*e[5mC]*e[5mC]*eT*eA*e[5mC]*eT*eA*e[5mC]*e[5mC]*eT*e[5mC]*eA) [compound 327903]
Leptin (secretion) [1]: 1.61

327905 (antisense e[5mC]*eA*eG*eA*e[5mC]*eT*e[5mC]*e[5mC]*eG*eG*eT*eG*eG*eA*eA*eT*eG*eA*eA*eG*eG*eA) [compound 327905]
% cells in cell cycle phase G1 [2]: 107%
% cells in cell cycle phase G2/M [2]: 106%
% cells in cell cycle phase S [2]: 89%
% cells in cell cycle phase aneuploid [2]: 94%
% cells in cell cycle phase subG1 [2]: 142%
% cells in cell cycle phase G1 [3]: 100%
% cells in cell cycle phase G2/M [3]: 109%
% cells in cell cycle phase S [3]: 77%
% cells in cell cycle phase aneuploid [3]: 102%
% cells in cell cycle phase subG1 [3]: 105%
Leptin (secretion) [1]: 1.62

327919 (antisense eG*eA*eA*eA*e[5mC]*e[5mC]*e[5mC]*eA*eG*e[5mC]*eA*eG*eA*e[5mC]*eA*eA*eT*eG*eT*eA*eG*e[5mC]*eT) [compound 327919]
Leptin (secretion) [1]: 1.44

327922 (antisense eT*e[5mC]*eA*eG*eT*eT*eT*eT*eG*e[5mC]*eA*eT*eG*eG*eA*eT*eT*eT*eG*e[5mC]*eA*e[5mC]*eA) [compound 327922]
Leptin (secretion) [1]: 1.25

327925 (antisense eT*eA*eG*e[5mC]*eT*eG*eG*eT*eT*eG*eA*eA*eG*eG*eG*eG*eA*e[5mC]*e[5mC]*eA*eA) [compound 327925]
Leptin (secretion) [1]: 1.40

327931 (antisense eA*eA*e[5mC]*e[5mC]*eA*eT*eA*e[5mC]*eA*eA*e[5mC]*e[5mC]*eT*eA*e[5mC]*eT*eA*e[5mC]*e[5mC]*eT*e[5mC]*eA) [compound 327931]
Leptin (secretion) [1]: 1.12

327933 (antisense eA*eA*eG*eG*eG*eA*eT*eT*e[5mC]*e[5mC]*eT*eG*eG*eG*eA*eA*eA*eA*e[5mC]*eT*eG*eG*eA*e[5mC]) [compound 327933]
% cells in cell cycle phase G1 [2]: 109%
% cells in cell cycle phase G2/M [2]: 116%
% cells in cell cycle phase S [2]: 84%
% cells in cell cycle phase aneuploid [2]: 130%
% cells in cell cycle phase subG1 [2]: 104%

327934 (antisense eG*eG*eT*eA*e[5mC]*eA*eA*eT*e[5mC]*eA*eA*e[5mC]*eG*eG*eT*e[5mC]*eG*eA*eT*eG*eG*eT) [compound 327934]
Leptin (secretion) [1]: 1.25

327941 (antisense eA*eA*e[5mC]*e[5mC]*e[5mC]*eA*e[5mC]*e[5mC]*eG*eA*e[5mC]*eA*eG*e[5mC]*eA*eA*eT*eG*eA*eA*eT*eG*eT*eT) [compound 327941]
Leptin (secretion) [1]: 0.54

327967 (antisense eA*e[5mC]*eT*eG*eT*eA*e[5mC]*eA*eA*eA*e[5mC]*eT*eA*e[5mC]*eT*eA*e[5mC]*e[5mC]*eT*e[5mC]*eA) [compound 327967]
Leptin (secretion) [1]: 1.22

328759 (antisense eG*eA*eG*eG*eG*dA*dT*dT*dG*dT*dA*dT*dG*dA*dA*e[5mC]*eA*eT*e[5mC]*eT) [compound 328759]
% cells in cell cycle phase G1 [2]: 104%
% cells in cell cycle phase G2/M [2]: 110%
% cells in cell cycle phase S [2]: 91%
% cells in cell cycle phase aneuploid [2]: 126%
% cells in cell cycle phase subG1 [2]: 132%
% cells in cell cycle phase G1 [3]: 91%
% cells in cell cycle phase G2/M [3]: 141%
% cells in cell cycle phase S [3]: 117%
% cells in cell cycle phase aneuploid [3]: 160%
% cells in cell cycle phase subG1 [3]: 164%

ACTTTCGGTTATCTAGCTTTA [ISIS 327892] (chemistry not given here) [uniform 2′-MOE PS; targets mir-131-2/mir-9]
liver toxicity (plasma transaminase levels, weekly) [4]: did not appear to cause liver toxicity

TGAGCTACAGTGCTTCATCTCA [ISIS 327901] (chemistry not given here) [uniform 2′-MOE PS; targets mir-143]
liver toxicity (plasma transaminase levels, weekly) [4]: did not appear to cause liver toxicity
